Experimental data as given in PubChem BioAssay AID330 (DTP/NCI, 2004).
“And” between values parts separate entries of the source, which are not always exact repeats. Equal values may be shown once. Toxic doses and inconclusive results are not listed.

System: P388 leukemia ip, CD2F1 mice, survival T/C
Assay: NCI In Vivo Anticancer Drug Screen. Data for tumor model P388 Leukemia (intraperitoneal) in CD2F1 (CDF1) mice
Settings: endpoint: median survival time, higher = longer survival
Outline: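 Mice carrying the transplanted tumor received test compound or vehicle. Survival was recorded in each group, and the value is the treated-group measurement divided by that of the vehicle-treated control group.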

[1] = dose: 50.0 mg/kg/injection, schedule: Q01DX005 (ip), vehicle: Klucel (hydroxypropylcellulose) (HPC)
[2] = dose: 200.0 mg/kg/injection, schedule: Q01DX005 (ip), vehicle: Klucel (hydroxypropylcellulose) (HPC)
[3] = dose: 100.0 mg/kg/injection, schedule: Q04DX002 (ip), vehicle: Klucel (hydroxypropylcellulose) (HPC)
[4] = dose: 200.0 mg/kg/injection, schedule: Q04DX002 (ip), vehicle: Klucel (hydroxypropylcellulose) (HPC)
[5] = dose: 60.0 mg/kg/injection, schedule: Q01DX005 (ip), vehicle: saline with Tween-80
[6] = dose: 120.0 mg/kg/injection, schedule: Q01DX005 (ip), vehicle: saline with Tween-80
[7] = dose: 240.0 mg/kg/injection, schedule: Q01DX005 (ip), vehicle: saline with Tween-80
[8] = dose: 25.0 mg/kg/injection, schedule: Q01DX009 (ip), vehicle: saline with Tween-80
[9] = dose: 50.0 mg/kg/injection, schedule: Q01DX009 (ip), vehicle: saline with Tween-80
[10] = dose: 100.0 mg/kg/injection, schedule: Q01DX009 (ip), vehicle: saline with Tween-80
[11] = dose: 200.0 mg/kg/injection, schedule: Q01DX009 (ip), vehicle: saline with Tween-80
[12] = dose: 100.0 mg/kg/injection, schedule: Q04DX003 (ip), vehicle: saline
[13] = dose: 200.0 mg/kg/injection, schedule: Q04DX003 (ip), vehicle: saline
[14] = dose: 400.0 mg/kg/injection, schedule: Q04DX003 (ip), vehicle: saline
[15] = dose: 50.0 mg/kg/injection, schedule: Q01DX005 (ip), vehicle: saline with Tween-80
[16] = dose: 100.0 mg/kg/injection, schedule: Q01DX005 (ip), vehicle: saline with Tween-80
[17] = dose: 200.0 mg/kg/injection, schedule: Q01DX005 (ip), vehicle: saline with Tween-80
[18] = dose: 400.0 mg/kg/injection, schedule: Q04DX002 (ip), vehicle: Klucel (hydroxypropylcellulose) (HPC)

`CSc1c2ccncc2c(C)c2c1[nH]c1ccccc12` was tested, and the T/C (dose: 6.25 mg/kg/injection, schedule: Q04DX002 (ip), vehicle: distilled water + Tween-80) was 95 % of control, the T/C (dose: 12.5 mg/kg/injection, schedule: Q04DX002 (ip), vehicle: distilled water + Tween-80) was 94 % of control and the T/C (dose: 25.0 mg/kg/injection, schedule: Q04DX002 (ip), vehicle: distilled water + Tween-80) was 88 % of control. For the same compound, the T/C (dose: 50.0 mg/kg/injection, schedule: Q04DX002 (ip), vehicle: distilled water + Tween-80) was 89 % of control, the T/C (dose: 100.0 mg/kg/injection, schedule: Q04DX002 (ip), vehicle: distilled water + Tween-80) was 95 % of control and the T/C (dose: 200.0 mg/kg/injection, schedule: Q04DX002 (ip), vehicle: distilled water + Tween-80) was 98 % of control.

`CC(=O)Oc1ccccc1C(=O)OC1CC(C)CCC1C(C)C` (stereo not given) was tested, and the T/C (dose: 12.5 mg/kg/injection, schedule: Q01DX005 (ip), vehicle: Klucel (hydroxypropylcellulose) (HPC)) was 99 % of control, the T/C (dose: 25.0 mg/kg/injection, schedule: Q01DX005 (ip), vehicle: Klucel (hydroxypropylcellulose) (HPC)) was 106 % of control and the T/C [1] was 88 % of control and 94 % of control. For the same compound, the T/C [2] was 103 % of control.

With `O=C(O)CC(CC(=O)O)c1ccc2c(c1)OCO2` the T/C [1] was 99 % of control, the T/C (dose: 100.0 mg/kg/injection, schedule: Q01DX005 (ip), vehicle: Klucel (hydroxypropylcellulose) (HPC)) was 109 % of control and the T/C [2] was 99 % of control.

In the case of `CCC(C(=O)O)C1(C(=O)O)CCCCCC1` (stereo not given), the T/C (dose: 100.0 mg/kg/injection, schedule: Q01DX001 (ip), vehicle: saline with Tween-80) was 101 % of control, the T/C (dose: 100.0 mg/kg/injection, schedule: Q04DX002 (ip), vehicle: saline with Tween-80) was 98 % of control and the T/C (dose: 200.0 mg/kg/injection, schedule: Q01DX001 (ip), vehicle: saline with Tween-80) was 106 % of control. For the same compound, the T/C (dose: 200.0 mg/kg/injection, schedule: Q04DX002 (ip), vehicle: saline with Tween-80) was 98 % of control, the T/C (dose: 400.0 mg/kg/injection, schedule: Q01DX001 (ip), vehicle: saline with Tween-80) was 108 % of control and the T/C (dose: 400.0 mg/kg/injection, schedule: Q04DX002 (ip), vehicle: saline with Tween-80) was 109 % of control.

`CC1(C)CC(=O)N(CN2CCCCC2)C(=O)C1` was tested, and the T/C [3] was 114 % of control and the T/C [4] was 120 % of control.

`CCc1cccc(CC)c1N1CC(C(=O)O)CC1=O` (stereo not given) was tested, and the T/C (dose: 60.0 mg/kg/injection, schedule: Q01DX005 (ip), vehicle: Klucel (hydroxypropylcellulose) (HPC)) was 107 % of control, the T/C (dose: 120.0 mg/kg/injection, schedule: Q01DX005 (ip), vehicle: Klucel (hydroxypropylcellulose) (HPC)) was 101 % of control and the T/C (dose: 240.0 mg/kg/injection, schedule: Q01DX005 (ip), vehicle: Klucel (hydroxypropylcellulose) (HPC)) was 101 % of control.

`CCOC(=O)c1ccc(NC(=O)Oc2ccc(C(=O)OC)cc2)cc1` was tested, and the T/C [5] was 103 % of control, the T/C [6] was 100 % of control and the T/C [7] was 103 % of control.

`CC(C)=CC[P+](C)(c1ccccc1)c1ccccc1` was tested, and the T/C (dose: 1.56 mg/kg/injection, schedule: Q04DX003 (ip), vehicle: saline) was 101 % of control, the T/C (dose: 3.13 mg/kg/injection, schedule: Q04DX003 (ip), vehicle: saline) was 100 % of control and the T/C (dose: 6.25 mg/kg/injection, schedule: Q04DX003 (ip), vehicle: saline) was 89 % of control.

For `N=c1c2ccn(C3OC(CO)C(O)C3O)c2ncn1N` (stereo not given), the T/C (dose: 6.25 mg/kg/injection, schedule: Q01DX009 (ip), vehicle: water) was 117 % of control and the T/C (dose: 50.0 mg/kg/injection, schedule: Q01DX009 (ip), vehicle: water) was 121 % of control.

With `O=C(/C=C/c1ccccc1)NOC(=O)/C=C/c1ccccc1` the T/C [8] was 107 % of control, the T/C [9] was 107 % of control and 123 % of control and the T/C [10] was 111 % of control and 114 % of control. For the same compound, the T/C [11] was 115 % of control.

For `COC(=O)C1=C(C)NC(C)=C(C(=O)OCCCN2CCC(c3ccccc3)(c3ccccc3)CC2)C1c1cccc([N+](=O)[O-])c1` (stereo not given), the T/C (dose: 15.0 mg/kg/injection, schedule: Q01DX005 (ip), vehicle: saline with Tween-80) was 100 % of control, the T/C (dose: 30.0 mg/kg/injection, schedule: Q01DX005 (ip), vehicle: saline with Tween-80) was 103 % of control and the T/C [5] was 99 % of control.

`CCCCC(NC(C)(C)C)c1ccccc1` (stereo not given) was tested, and the T/C [12] was 97 % of control, the T/C [13] was 101 % of control and the T/C [14] was 102 % of control.

`CS(=O)(=O)C(c1nc2n(c1O)C(=N)N=N2)c1nc2n(c1O)C(=N)N=N2` (stereo not given) was tested, and the T/C (dose: 60.0 mg/kg/injection, schedule: Q01DX005 (ip), vehicle: saline) was 99 % of control, the T/C (dose: 120.0 mg/kg/injection, schedule: Q01DX005 (ip), vehicle: saline) was 100 % of control and the T/C (dose: 240.0 mg/kg/injection, schedule: Q01DX005 (ip), vehicle: saline) was 105 % of control.

With `CC(=O)Oc1ccccc1C(=O)OC1CC2CCC1(C)C2(C)C` (stereo not given) the T/C [15] was 92 % of control, the T/C [16] was 97 % of control and the T/C [17] was 98 % of control.

In the case of `C=CC(C)(O)CS(=O)c1ccccc1` (stereo not given), the T/C [12] was 100 % of control, the T/C [13] was 101 % of control and the T/C [14] was 108 % of control.

With `CC1CCCC(NC(=O)N(CCCl)N=O)C1` (stereo not given) the T/C (dose: 4.0 mg/kg/injection, schedule: Q04DX003 (ip), vehicle: saline with Tween-80) was 118 % of control, the T/C (dose: 6.25 mg/kg/injection, schedule: Q01DX009 (ip), vehicle: saline with Tween-80) was 175 % of control and the T/C (dose: 12.5 mg/kg/injection, schedule: Q01DX009 (ip), vehicle: saline with Tween-80) was 225 % of control. The T/C (dose: 16.0 mg/kg/injection, schedule: Q04DX003 (ip), vehicle: saline with Tween-80) was 177 % of control, the T/C [8] was 272 % of control and 295 % of control and the T/C (dose: 25.0 mg/kg/injection, schedule: Q04DX003 (ip), vehicle: saline with Tween-80) was 245 % of control. For the same compound, the T/C (dose: 50.0 mg/kg/injection, schedule: Q04DX003 (ip), vehicle: saline with Tween-80) was 118 % of control.

In the case of `Nc1ccc(-c2ccc(N)c(Cl)c2)cc1Cl`, the T/C [9] was 104 % of control, the T/C [10] was 114 % of control and the T/C [11] was 112 % of control.

In the case of `COc1ccccc1NC(=O)Oc1ccc(C(C)(CCC(=O)O)c2ccc(OC(=O)Nc3ccccc3OC)cc2)cc1`, the T/C (dose: 25.0 mg/kg/injection, schedule: Q01DX005 (ip), vehicle: saline with Tween-80) was 103 % of control, the T/C [15] was 101 % of control and 104 % of control and 97 % of control and the T/C [16] was 102 % of control and 105 % of control and 94 % of control. For the same compound, the T/C [17] was 90 % of control and 97 % of control and the T/C (dose: 400.0 mg/kg/injection, schedule: Q01DX005 (ip), vehicle: saline with Tween-80) was 102 % of control.

With `C1CC[C@H]2OCN[C@@H]2C1` the T/C [4] was 118 % of control and the T/C [18] was 115 % of control.

In the case of `COC(=O)c1ccc(OCCC(=O)CCl)cc1`, the T/C (dose: 50.0 mg/kg/injection, schedule: Q01DX009 (ip), vehicle: Klucel (hydroxypropylcellulose) (HPC)) was 102 % of control and the T/C (dose: 100.0 mg/kg/injection, schedule: Q01DX009 (ip), vehicle: Klucel (hydroxypropylcellulose) (HPC)) was 106 % of control.

`COC(=O)NN(C(=O)OC)C12CCCC1N(C(=O)OC)N(C(=O)OC)c1c2ccc2cc(OC)ccc12` (stereo not given) was tested, and the T/C [3] was 99 % of control, the T/C [4] was 92 % of control and the T/C [18] was 90 % of control.

With `CC(C)(N)COC(=O)c1ccccc1C(=O)O` the T/C (dose: 100.0 mg/kg/injection, schedule: Q01DX001 (ip), vehicle: saline) was 90 % of control, the T/C (dose: 200.0 mg/kg/injection, schedule: Q01DX001 (ip), vehicle: saline) was 95 % of control and the T/C (dose: 400.0 mg/kg/injection, schedule: Q01DX001 (ip), vehicle: saline) was 104 % of control.

In the case of `CCOc1cc2c(cc1OC)c[n+](C)c1c3cc(OC)c(OC)cc3ccc21`, the T/C (dose: 10.0 mg/kg/injection, schedule: Q01DX009 (ip), vehicle: water) was 122 % of control.

In the case of `COc1ccc(NC(=O)CCC(=O)CC(=O)c2ccncc2)cc1`, the T/C [5] was 101 % of control, the T/C [6] was 103 % of control and the T/C [7] was 93 % of control.

In the case of `Nc1ccn(C2OC(CO)C3OP(=O)(O)OC32)c(=O)n1` (stereo not given), the T/C (dose: 25.0 mg/kg/injection, schedule: Q01DX005 (ip), vehicle: water) was 101 % of control, the T/C (dose: 50.0 mg/kg/injection, schedule: Q01DX005 (ip), vehicle: water) was 100 % of control and the T/C (dose: 100.0 mg/kg/injection, schedule: Q01DX005 (ip), vehicle: water) was 101 % of control. For the same compound, the T/C (dose: 200.0 mg/kg/injection, schedule: Q01DX005 (ip), vehicle: water) was 101 % of control and the T/C (dose: 400.0 mg/kg/injection, schedule: Q01DX005 (ip), vehicle: water) was 100 % of control.
